Measured values as given in patent publication US6753425B2, “Photographic processing composition containing bistriazinyl arylenediamine derivative” (Fuji Photo Film Co., Ltd., priority 2000, dated 2004).
Where two headings read alike, the source gives them in different places.

Legend:
[1] = Stability against deposition of precipitates (visual judgement of the stored processing composition); type: physicochemical; set-up: key: the level of conspicuous precipitation was xx; the level of apparent precipitation was x; the level of slight precipitation was Δ; the level of no precipitation but clouding was ◯; the level of complete transparency with neither clouding nor precipitation was ◯◯
[2] = Solubility at the preparation of the additive composition for a fixing solution; type: physicochemical; conditions: Example 5 additive composition, dissolution aid none
[3] = Example 1 concentrated color developing composition, 15 mmol added, glass bottle, 4 weeks at room temperature
[4] = Example 1 concentrated color developing composition, 15 mmol added, glass bottle, 4 weeks at −5° C.
[5] = Example 2 color developing composition with increased developing agent, 25 mmol added, 4 weeks at room temperature
[6] = Example 2 color developing composition with increased developing agent, 25 mmol added, 4 weeks at −5° C.
[7] = Example 3 fixing composition, 5 mmol added, 4 weeks at room temperature
[8] = Example 3 fixing composition, 5 mmol added, 4 weeks at −5° C.
[9] = Example 4 color developing composition for color negative film, 15 mmol added, 4 weeks at room temperature
[10] = Example 4 color developing composition for color negative film, 15 mmol added, 4 weeks at −5° C.
[11] = Example 5 additive composition, compound 70 mmol, dissolution aid none, −5° C.

Compound | Evaluation of Deposition (room temperature) [1] | Evaluation of Deposition (−5° C.) [1] | Evaluation of Deposition (room temperature) [1, 3] | Evaluation of Deposition (−5° C.) [1, 4] | Evaluation of Deposition (room temperature) [1, 5] | Evaluation of Deposition (−5° C.) [1, 6] | Evaluation of Deposition (room temperature) [1, 7] | Evaluation of Deposition (−5° C.) [1, 8] | Evaluation of Deposition (room temperature) [1, 9] | Evaluation of Deposition (−5° C.) [1, 10] | Evaluation of Deposition (−5° C.) [1, 11] | Evaluation of Deposition (−5° C.) ([1]; Example 5 additive composition, compound 140 mmol, dissolution aid none, −5° C.) | Solubility at the Preparation of Solution ([2]; compound 70 mmol) | Solubility at the Preparation of Solution ([2]; compound 140 mmol)
CC(CO)Nc1nc(NCC(O)CO)nc(Nc2cc(Nc3nc(NCC(O)CO)nc(NC(C)CO)n3)cc(S(=O)(=O)[O-])c2)n1.[Na+] (centres unmarked) [Compound A-23] | ◯◯ | ◯◯ and ◯ | – | – | – | – | – | – | – | – | – | – | – | –
COc1cc(Nc2nc(NCCS(=O)(=O)[O-])nc(NCC(O)CO)n2)c(OC)cc1Nc1nc(NCCS(=O)(=O)[O-])nc(NCC(O)CO)n1.[Na+].[Na+] (centres unmarked) [Compound A-7] | ◯◯ | ◯ | – | – | – | – | – | – | – | – | – | – | – | –
O=S(=O)([O-])CCNc1nc(NCC(O)CO)nc(Nc2cccc(Nc3nc(NCCS(=O)(=O)[O-])nc(NCC(O)CO)n3)c2)n1.[Na+].[Na+] (centres unmarked) [Compound A-3] | – | – | ◯◯ | ◯◯ | ◯◯ | ◯◯ | ◯◯ | ◯◯ | ◯◯ | ◯◯ | ◯◯ | ◯◯ | Completely | Completely
O=S(=O)([O-])CCNc1nc(NCC(O)CO)nc(Nc2ccc(Nc3nc(NCCS(=O)(=O)[O-])nc(NCC(O)CO)n3)cc2)n1.[Na+].[Na+] (centres unmarked) [Compound A-2] | – | – | ◯◯ | ◯◯ | ◯◯ | ◯◯ | ◯◯ | ◯◯ | ◯◯ | ◯◯ | ◯◯ | – | Completely | –
